Reference: US8288421B2, “Phenylaminopyridines” (Basilea Pharmaceutica AG, priority 2004, dated 2012)

Assays:
HT1080 = assay: MTS proliferation assay; type: cell-based, human; settings: HT1080, 72 h read-out
Procedure: (§1) The assay is performed in 96 well tissue culture plates. The cells (range: 1.5*10^3-10^4) are seeded out in 80 μl complete medium 24 h prior to compound treatment. The test compounds are added in 20 μl complete medium containing max 5% DMSO. The final compound concentrations in the assays are in the range of 0.001 μM-10 μM. The assay plates are incubated for 72 h at culture conditions. The MTS reagent is prepared according to the manufacturer's protocol (Promega G1111). 20 μl MTS reagent are added to each well, the assay plates are quickly spun and incubated for another 3 h at culture conditions. Subsequently, the plates are shortly shaked and absorption measured with a microplate-reader at 492 nm. The scores A, B, C and D are explained at the end of the Table.

HeLa [1] = assay: MTS proliferation assay; type: cell-based, human; settings: 72 h read-out
Procedure: as §1

Jurkat [2] = assay: MTS proliferation assay; type: cell-based, human; settings: 72 h read-out
Procedure: as §1

PBL [3] = assay: Mitochondrial membrane potential (JC-1); type: cell-based, human; settings: 48 h read-out
Procedure: (§2) This assay is performed in 96 well tissue culture plates. Appropriate number of cells (adherent cells: 3-5*10^3, suspension cells: 8-10*10^3) are being seeded out in 80 μl complete medium. Adherent cells are incubated for 24 h for proper spreading out before addition of test compounds while suspension cells are immediately treated with test compounds after seeding out. The test compounds are added in 20 μal complete medium containing max 5% DMSO. […] The assay plates are then further incubated for 30 minutes and subsequently analyzed with a standard inverted fluorescence microscope by using the FITC and TRITC filters.
(§3) The scores A, B, C and D are explained at the end of the Table.

MCF7 = assay: Mitochondrial membrane potential (JC-1); type: cell-based, human; settings: MCF7, 48 h read-out
Procedure: as §2, §3

HeLa [4] = assay: Mitochondrial membrane potential (JC-1); type: cell-based, human; settings: 48 h read-out
Procedure: as §2, §3

Jurkat [5] = assay: Mitochondrial membrane potential (JC-1); type: cell-based, human; settings: 48 h read-out
Procedure: as §2, §3

PBL [6] = assay: Hoechst 33342 nuclear staining; type: cell-based, human; settings: 48 h read-out
Procedure: as §2, with “μl” for “μal”, “DMSO. The final compound concentrations in the assays are in the range of 0.001 μM-10 μM.” for “DMSO.”, “microscope.” for “microscope by using the FITC and TRITC filters.”
(§4) The readout allows the determination of the fraction of apoptotic nuclei as well as other morphological criteria specific for apoptosis as a function of the treatment. The scores A, B, C and D are explained at the end of the Table.

HeLa [7] = assay: Hoechst 33342 nuclear staining; type: cell-based, human; settings: 48 h read-out
Procedure: as §2, with “μl” for “μal”, “DMSO. The final compound concentrations in the assays are in the range of 0.001 μM-10 μM.” for “DMSO.”, “microscope.” for “microscope by using the FITC and TRITC filters.”
as §4

Jurkat [8] = assay: Hoechst 33342 nuclear staining; type: cell-based, human; settings: 48 h read-out
Procedure: as §2, with “μl” for “μal”, “DMSO. The final compound concentrations in the assays are in the range of 0.001 μM-10 μM.” for “DMSO.”, “microscope.” for “microscope by using the FITC and TRITC filters.”
as §4

MRC5 [9] = assay: Hoechst 33342 nuclear staining; type: cell-based; settings: MRC5, 48 h read-out
Procedure: as §2, with “μl” for “μal”, “DMSO. The final compound concentrations in the assays are in the range of 0.001 μM-10 μM.” for “DMSO.”, “microscope.” for “microscope by using the FITC and TRITC filters.”
as §4

Jily [10] = assay: Hoechst 33342 nuclear staining; type: cell-based; settings: 48 h read-out
Procedure: as §2, with “μl” for “μal”, “DMSO. The final compound concentrations in the assays are in the range of 0.001 μM-10 μM.” for “DMSO.”, “microscope.” for “microscope by using the FITC and TRITC filters.”
as §4

MRC5 [11] = assay: MTS proliferation assay; type: cell-based; settings: MRC5, 72 h read-out
Procedure: as §1

Jily [12] = assay: MTS proliferation assay; type: cell-based; settings: 72 h read-out
Procedure: as §1

DOHH2 = assay: Mitochondrial membrane potential (JC-1); type: cell-based; settings: DOHH2, 48 h read-out
Procedure: as §2, §3

SMILES	IC50 (HT1080) [nM]	IC50 (HeLa [1]) [nM]	IC50 (Jurkat [2]) [nM]	EC50 (PBL [3]) [nM]	EC50 (MCF7) [nM]	EC50 (HeLa [4]) [nM]	EC50 (Jurkat [5]) [nM]	EC50 (PBL [6]) [nM]	EC50 (HeLa [7]) [nM]	EC50 (Jurkat [8]) [nM]	EC50 (Jily [10]) [nM]	EC50 (DOHH2) [nM]	EC50 (MRC5 [9]) [nM]	IC50 (MRC5 [11]) [nM]	IC50 (Jily [12]) [nM]
O=C(Nc1cccc(-c2cncc(Nc3ccc(OCc4ccccc4)cc3)c2)c1)c1ccccc1 [Example 27]	> 1000	> 1000	> 1000	> 1000	> 1000	> 1000	> 1000	> 1000	> 1000	> 1000	> 1000	> 1000	> 1000	> 1000	> 1000
COc1ccc(Nc2cncc(-c3cccc(NC(=O)c4ccccc4)c3)c2)cc1OC [Example 29]	> 1000	> 1000	100 to 1000	> 1000	> 1000	> 1000	100 to 1000	> 1000	100 to 1000	100 to 1000	100 to 1000	> 1000	> 1000	> 1000	100 to 1000
COc1ccc(Nc2cncc(-c3cccc(NC(=O)c4ccccc4)c3)c2)c(OC)c1 [Example 30]	> 1000	> 1000	100 to 1000	> 1000	> 1000	> 1000	> 1000	> 1000	> 1000	100 to 1000	100 to 1000	> 1000	> 1000	> 1000	100 to 1000

Continued, in another order:

IC50 (HT1080) [nM]	IC50 (HeLa [1]) [nM]	IC50 (Jurkat [2]) [nM]	EC50 (PBL [3]) [nM]	EC50 (MCF7) [nM]	EC50 (HeLa [4]) [nM]	EC50 (Jurkat [5]) [nM]	EC50 (PBL [6]) [nM]	EC50 (HeLa [7]) [nM]	EC50 (Jurkat [8]) [nM]	EC50 (Jily [10]) [nM]	EC50 (DOHH2) [nM]	SMILES	EC50 (MRC5 [9]) [nM]	IC50 (MRC5 [11]) [nM]	IC50 (Jily [12]) [nM]
10 to 100	10 to 100	10 to 100	> 1000	100 to 1000	10 to 100	10 to 100	> 1000	10 to 100	10 to 100	10 to 100	10 to 100	COc1ccc(Nc2cncc(-c3cccc(NC(=O)c4cccs4)c3)c2)cc1 [Example 22]	100 to 1000	100 to 1000	10 to 100
100 to 1000	100 to 1000	100 to 1000	> 1000	100 to 1000	100 to 1000	100 to 1000	> 1000	100 to 1000	100 to 1000	100 to 1000	100 to 1000	COc1ccc(Nc2cncc(-c3cccc(NS(=O)(=O)c4ccccc4)c3)c2)cc1 [Example 23]	> 1000	100 to 1000	100 to 1000
> 1000	> 1000	100 to 1000	> 1000	> 1000	> 1000	100 to 1000	> 1000	> 1000	100 to 1000	> 1000	> 1000	COc1ccc(Nc2cncc(-c3cccc(NC(=O)c4cccc(OC)c4)c3)c2)cc1 [Example 25]	> 1000	> 1000	100 to 1000
100 to 1000	100 to 1000	10 to 100	> 1000	> 1000	> 1000	100 to 1000	> 1000	100 to 1000	10 to 100	100 to 1000	100 to 1000	COc1ccc(Nc2cncc(-c3cccc(NC(=O)C(C)C)c3)c2)cc1 [Example 26]	> 1000	100 to 1000	10 to 100
